The subject of one experiment is MKN45 cells. Nature of the experiment: MKN45 cell proliferation assay (CellTiter-Glo). It is filed as cell-based. The settings on record: Homo sapiens, MKN-45, 72 h, MKN45 cell line, 3 days incubation, at least duplicate experiments, read-out: Prolif. IC50. On the procedure:
The effect of inhibitors on the proliferation of MKN45 cells was determined using the following protocol. MKN45 cells were plated in Corning 3917 96-well white tissue culture treated plates in growth medium (RPMI, 10% FCS) at a density of 5000 cells/well in a total volume of 135 μL and incubated at 37° C., 5% CO2, 95% humidity overnight. The following day, one-tenth volume of a 10× concentration of compounds was added to the wells in an 8-point dilution series. The dilution series was composed of an initial 1:5 dilution of a 10 mM stock of compound in DMSO, followed by serial 1:4 dilutions in DMSO, then a 1:20 dilution in growth medium prior to the 1:10 dilution into the cell plate. Final DMSO concentration on the cells was 0.1%, there were control wells treated with both 0.1% DMSO and no DMSO. The typical dilution range is 10 μM to 0.6 nM. Once the compound was added to the cells, plates were incubated for 3 days at 37° C., 5% CO2 at 95% humidity. On the third day, after allowing all cells and reagents to come to room temperature, 25 μL of CellTiter-Glo reagent (Promega # G7573) was added to the wells. Plates were shaken on a platform for 10 minutes prior to reading luminescence for 0.1 seconds. The signal of the control wells was taken as 100% growth and growth inhibition was expressed as percent of control. IC50 values were determined from the percent of control data using a standard four-parameter model.
The IC50 values of exemplary compounds of the present invention determined in a cell proliferation assay using the MKN45 cell line according to the procedures described herein in at least duplicate experiments are abbreviated as follows and are shown in Table 2: A, IC50≦0.1 μM; B, 0.1 μM<IC50≦1 μM; C, 1 μM<IC50≦10 μM; D, IC50>10 μM; ND, not determined. The Example # of Table 2 corresponds to the compound example number as illustrated in the Examples section.

The target in the next experiment is T1, phosphorylated c-MET (Homo sapiens, UniProt P08581).
T1 construct: endogenous in cells; host or cells: MKN45
In words: c-MET cell mechanistic assay (phosphorylated c-MET in MKN45 cells). The settings on record: MKN45 cell line, four hours incubation, phosphorylated c-MET levels, at least duplicate experiments; read-out: Met mech IC50. It is filed as cell-based. As for the experimental part:
The cellular activity of the compounds of the present invention may be determined by the following procedure. MKN45 cells were plated in Falcon 3072 96-well plates in growth media (RPMI, 10% FBS, 1% L-glutamine) at a density of 5000 cells/well and incubated at 37° C., 5% CO2 overnight. The following day, one-tenth volume of a 10× concentration of compounds was added to the wells in a 6-point dilution series. The dilutions series was composed of an initial 1:5 dilution in DMSO, followed by a 1:10 dilution in growth media, for a final DMSO concentration on cells of 0.5%. Control wells were treated with 0.5% DMSO. The typical range of dilution was 10 μM to 3 nM. Once compound was added to the cells, plates were incubated for four hours at 37° C., 5% CO2. Plates were then washed in PBS, and lysed in triton-based lysis buffer. Lysates were transferred to a precoated capture plate made by Biosource (Cat # KH00281). The phosphorylated c-MET levels were measured by incubating with a rabbit polyclonal antibody against phosphorylated c-MET ([pYpYpY1230/1234/1235]) followed by an anti-rabbit antibody conjugated to HRP. Signal was measured on a Wallac Victor plate reader at 450 nm. The DMSO signal of the control wells was defined as 100% and the percent of inhibition of phosphorylated c-Met was expressed as percent of control. IC50 values were determined from the percent of control data using a standard four-parameter model.
The IC50 values of exemplary compounds of the present invention determined in a c-MET cell mechanistic assay using the MKN45 cell line according to the procedures described herein in at least duplicate experiments are abbreviated as follows and are shown in Table 3: A, IC50≦0.1 μM; B, 0.1 μM<IC50≦1 μM; C, 1 μM<IC50≦10 μM; D, IC50>10 μM; ND, not determined. The Example # of Table 3 corresponds to the compound example number as illustrated in the Examples section.

pIC50: −log10 of the molar value. Some results are limits rather than exact numbers.

What is called pIC50 is −log10 of the IC50, conventionally taken in molar units.

T1 sequence (P08581 25-1390): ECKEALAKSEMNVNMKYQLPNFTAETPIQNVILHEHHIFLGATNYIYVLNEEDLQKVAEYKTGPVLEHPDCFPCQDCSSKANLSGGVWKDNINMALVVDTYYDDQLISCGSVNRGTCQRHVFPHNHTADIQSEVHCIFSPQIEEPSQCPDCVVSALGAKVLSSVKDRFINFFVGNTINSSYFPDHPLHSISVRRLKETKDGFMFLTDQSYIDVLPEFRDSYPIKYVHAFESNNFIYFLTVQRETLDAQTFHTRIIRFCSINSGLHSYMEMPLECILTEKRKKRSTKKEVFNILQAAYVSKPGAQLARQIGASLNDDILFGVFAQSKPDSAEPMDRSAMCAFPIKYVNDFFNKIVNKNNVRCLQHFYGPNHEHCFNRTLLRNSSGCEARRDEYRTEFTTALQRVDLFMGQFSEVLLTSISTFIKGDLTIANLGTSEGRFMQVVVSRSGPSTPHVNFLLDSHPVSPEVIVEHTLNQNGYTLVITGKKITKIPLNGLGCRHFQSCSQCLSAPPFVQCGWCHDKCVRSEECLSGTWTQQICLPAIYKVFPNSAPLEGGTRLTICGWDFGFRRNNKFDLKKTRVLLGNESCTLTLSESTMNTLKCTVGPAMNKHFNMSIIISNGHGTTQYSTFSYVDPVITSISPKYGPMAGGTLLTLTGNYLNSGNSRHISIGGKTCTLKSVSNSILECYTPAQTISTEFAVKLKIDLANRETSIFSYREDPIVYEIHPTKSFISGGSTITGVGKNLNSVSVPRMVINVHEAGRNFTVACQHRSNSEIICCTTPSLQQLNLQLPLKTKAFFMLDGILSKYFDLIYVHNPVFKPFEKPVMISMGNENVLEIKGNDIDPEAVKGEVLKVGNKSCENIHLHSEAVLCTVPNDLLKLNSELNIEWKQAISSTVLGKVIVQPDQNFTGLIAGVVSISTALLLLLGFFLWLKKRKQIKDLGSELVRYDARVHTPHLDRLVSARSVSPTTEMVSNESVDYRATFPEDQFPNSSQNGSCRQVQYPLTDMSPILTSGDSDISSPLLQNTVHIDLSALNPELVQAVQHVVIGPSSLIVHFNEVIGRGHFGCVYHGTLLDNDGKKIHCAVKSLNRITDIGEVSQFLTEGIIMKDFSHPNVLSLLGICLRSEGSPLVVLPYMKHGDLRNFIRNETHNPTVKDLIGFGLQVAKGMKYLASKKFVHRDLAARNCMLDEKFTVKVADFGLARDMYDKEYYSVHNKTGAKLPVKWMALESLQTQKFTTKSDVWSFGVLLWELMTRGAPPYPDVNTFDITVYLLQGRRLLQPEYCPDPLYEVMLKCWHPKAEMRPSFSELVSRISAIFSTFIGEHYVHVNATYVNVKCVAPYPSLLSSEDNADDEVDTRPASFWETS

With `CC(c1c(Cl)ccc(F)c1Cl)c1c[nH]c2ncc(-c3cnn(C(C)(C)CO)c3)cc12` (stereo not shown) [Example 65, 2-(4-{3-[1-(2,6-Dichloro-3-fluorophenyl)ethyl]-1H-pyrrolo[2,3-b]pyridin-5-yl}-pyrazol-1-yl)-2-methylpropan-1-ol], the results for the negative logarithm of the IC50 (pIC50) in the experiment on MKN45 cells and at phosphorylated c-MET were 6.00 to 7.00 and not below 7.00, respectively.
For `CC(c1c(Cl)ccc(F)c1Cl)c1c[nH]c2ncc(-c3ccccc3)cc12` (stereo not shown) [Example 19, 3-[1-(2,6-Dichloro-3-fluorophenyl)ethyl]-5-phenyl-1H-pyrrolo[2,3-b]-pyridine] the same measures were less than 5.00 and 5.00 to 6.00.
As for `C[C@H](c1c(Cl)ccc(F)c1Cl)c1c[nH]c2ncc(-c3cnn(CC(N)=O)c3)cc12` [Example 77, 2-(4-{3-[(S)-1-(2,6-Dichloro-3-fluorophenyl)ethyl]-1H-pyrrolo[2,3-b]-pyridin-5-yl}-pyrazol-1-yl)-acetamide], the pIC50 in the experiment with MKN45 cells and at phosphorylated c-MET was not below 7.00 throughout.
As to `CC(c1c(Cl)ccc(F)c1Cl)c1c[nH]c2ncc(-c3cnn(C)c3)cc12` (stereo not shown) [Example 27, 3-[1-(2,6-Dichloro-3-fluorophenyl)-ethyl]-5-(1-methyl-1H-pyrazol-4-yl)-1H-pyrrolo[2,3-b]pyridine], the pIC50 was 6.00 to 7.00 with MKN45 cells and not below 7.00 at phosphorylated c-MET.
On to `CC(c1c(Cl)ccc(F)c1Cl)c1c[nH]c2ncc(C3=CCN(C=O)CC3)cc12` (stereo not shown) [Example 38, 4-{3-[1-(2,6-Dichloro-3-fluorophenyl)ethyl]-1H-pyrrolo[2,3-b]pyridin-5-yl}-3,6-dihydro-2H-pyridine-1-carbaldehyde], for which the pIC50 with MKN45 cells and at phosphorylated c-MET was 6.00 to 7.00 in each case.
As for `CC(c1c(Cl)ccc(F)c1Cl)c1c[nH]c2ncc(-c3ccc(C(=O)NCCN4CCOCC4)cc3)cc12` (stereo not shown) [Example 7, 4-{3-[1-(2,6-Dichloro-3-fluorophenyl)ethyl]-1H-pyrrolo[2,3-b]pyridin-5-yl}-N-(2-morpholin-4-ylethyl)benzamide], the pIC50 in the experiment on MKN45 cells and on phosphorylated c-MET was 6.00 to 7.00 each time.
Consider `CC(c1c(Cl)ccc(F)c1Cl)c1c[nH]c2ncc(-c3cnn(C4CN(S(C)(=O)=O)C4)c3)cc12` (stereo not shown) [Example 57, 3-[1-(2,6-Dichloro-3-fluorophenyl)-ethyl]-5-[1-(1-methanesulfonylazetidin-3-yl)-1H-pyrazol-4-yl]-1H-pyrrolo[2,3-b]pyridine], for which the pIC50 is 6.00 to 7.00 in the experiment on MKN45 cells and not below 7.00 on phosphorylated c-MET.
For the compound `C[C@H](c1c(Cl)ccc(F)c1Cl)c1c[nH]c2ncc(C3=CCCN(C(N)=O)C3)cc12` [Example 67, 5-{3-[(S)-1-(2,6-Dichloro-3-fluorophenyl)ethyl]-1H-pyrrolo[2,3-b]pyridin-5-yl}-3,6-dihydro-2H-pyridine-1-carboxamide], the figures for the pIC50 in the experiment with MKN45 cells and at phosphorylated c-MET were 6.00 to 7.00 and not below 7.00, respectively.
Regarding `C[C@@H](c1c(Cl)ccc(F)c1Cl)c1c[nH]c2ncc(-c3cnn(C4CCNCC4)c3)cc12` [Example 81, 3-[(R)-1-(2,6-Dichloro-3-fluorophenyl)ethyl]-5-(1-piperidin-4-yl-1H-pyrazol-4-yl)-1H-pyrrolo[2,3-b]pyridine], the pIC50 in the experiment with MKN45 cells and at phosphorylated c-MET was 6.00 to 7.00 throughout.
Take `C[C@H](c1c(Cl)ccc(F)c1Cl)c1c[nH]c2ncc(-c3cnn(C[C@H](O)CO)c3)cc12` [Example 90, (S)-3-(4-{3-[(S)-1-(2,6-Dichloro-3-fluorophenyl)ethyl]-1H-pyrrolo[2,3-b]pyridin-5-yl}-pyrazol-1-yl)-propane-1,2-diol]: the pIC50 in the experiment on MKN45 cells and on phosphorylated c-MET was not below 7.00 throughout.
Take `CC(c1c(Cl)ccc(F)c1Cl)c1c[nH]c2ncc(-c3cnn(C4CN(C=O)C4)c3)cc12` (stereo not shown) [Example 55, 3-(4-{3-[1-(2,6-Dichloro-3-fluorophenyl)ethyl]-1H-pyrrolo[2,3-b]pyridin-5-yl}-pyrazol-1-yl)-azetidine-1-carbaldehyde]: the pIC50 with MKN45 cells and on phosphorylated c-MET was not below 7.00 each time.
Take `CC(c1c(Cl)ccc(F)c1Cl)c1c[nH]c2ncc(-c3cnn(C(C)(C)C(=O)N(C)C)c3)cc12` (stereo not shown) [Example 63, 2-(4-{3-[1-(2,6-Dichloro-3-fluorophenyl)ethyl]-1H-pyrrolo[2,3-b]pyridin-5-yl}-pyrazol-1-yl)-N,N-dimethylisobutyramide]: the figures for the negative logarithm of the IC50 (pIC50) in the experiment with MKN45 cells and at phosphorylated c-MET were 6.00 to 7.00 and not below 7.00, respectively.
As for `CNC(=O)N1CCC(n2cc(-c3cnc4[nH]cc(C(C)c5c(Cl)ccc(F)c5Cl)c4c3)cn2)CC1` (stereo not shown) [Example 51, 4-(4-{3-[1-(2,6-Dichloro-3-fluorophenyl)ethyl]-1H-pyrrolo[2,3-b]pyridin-5-yl}-pyrazol-1-yl)-piperidine-1-carboxylic acid methylamide], the pIC50 with MKN45 cells and on phosphorylated c-MET was not below 7.00 each time.
As for `CC(c1c(Cl)ccc(F)c1Cl)c1c[nH]c2ncc(-c3ccc(S(=O)(=O)N(C)C)cc3)cc12` (stereo not shown) [Example 22, 4-{3-[1-(2,6-Dichloro-3-fluorophenyl)ethyl]-1H-pyrrolo[2,3-b]pyridin-5-yl}-N,N-dimethylbenzenesulfonamide], the pIC50 with MKN45 cells and at phosphorylated c-MET was 5.00 to 6.00 each time.
In the case of `C[C@H](c1c(Cl)ccc(F)c1Cl)c1c[nH]c2ncc(-c3cnn(CC(=O)N4CCOCC4)c3)cc12` [Example 78, 2-(4-{3-[(S)-1-(2,6-Dichloro-3-fluorophenyl)ethyl]-1H-pyrrolo[2,3-b]pyridin-5-yl}-pyrazol-1-yl)-1-morpholin-4-ylethanone], the pIC50 with MKN45 cells and at phosphorylated c-MET was not below 7.00 each time.
`CC(c1c(Cl)ccc(F)c1Cl)c1c[nH]c2ncc(-c3cnn(C(C)C)c3)cc12` (stereo not shown) [Example 30, 3-[1-(2,6-Dichloro-3-fluorophenyl)ethyl]-5-(1-isopropyl-1H-pyrazol-4-yl)-1H-pyrrolo[2,3-b]pyridine]: the figures for the pIC50 in the experiment with MKN45 cells and on phosphorylated c-MET were 6.00 to 7.00 and not below 7.00, respectively.
On to `CC(c1c(Cl)ccc(F)c1Cl)c1c[nH]c2ncc(-c3ccc(C(=O)N4CCCC4)cc3)cc12` (stereo not shown) [Example 4, (4-{3-[1-(2,6-Dichloro-3-fluorophenyl)ethyl]-1H-pyrrolo[2,3-b]pyridin-5-yl}phenyl)pyrrolidin-1-ylmethanone], for which the pIC50 with MKN45 cells and at phosphorylated c-MET was 6.00 to 7.00 each time.
For `CC(=O)N1CCC(n2cc(-c3cnc4[nH]cc(C(C)c5c(Cl)ccc(F)c5Cl)c4c3)cn2)CC1` (stereo not shown) [Example 48, 1-[4-(4-{3-[1-(2,6-Dichloro-3-fluorophenyl)ethyl]-1H-pyrrolo[2,3-b]pyridin-5-yl]-pyrazol-1-yl}-piperidin-1-yl)-ethanone], the pIC50 in the experiment with MKN45 cells and on phosphorylated c-MET was not below 7.00 each time.
Regarding `CC(c1c(Cl)ccc(F)c1Cl)c1c[nH]c2ncc(-c3cnn(C4CN(C(=O)N(C)C)C4)c3)cc12` (stereo not shown) [Example 59, 3-(4-{3-[1-(2,6-Dichloro-3-fluorophenyl)ethyl]-1H-pyrrolo[2,3-b]pyridin-5-yl}-pyrazol-1-yl)-azetidine-1-carboxylic acid dimethylamide], the pIC50 in the experiment on MKN45 cells and on phosphorylated c-MET was 6.00 to 7.00 each time.
Regarding `CC(c1c(Cl)ccc(F)c1Cl)c1c[nH]c2ncc(-c3cnn(C4CCN(C(=O)N(C)C)CC4)c3)cc12` (stereo not shown) [Example 28, 4-(4-{3-[1-(2,6-Dichloro-3-fluorophenyl)ethyl]-1H-pyrrolo[2,3-b]pyridin-5-yl}-pyrazol-1-yl)-piperidine-1-carboxylic acid dimethylamide], the pIC50 in the experiment on MKN45 cells and at phosphorylated c-MET was not below 7.00 throughout.

Values taken from patent US8592448B2 (OSI Pharmaceuticals, LLC, priority 2008, dated 2013).
